Measured values as given in US8383619B2, “Pharmaceutical compounds” (Astex Therapeutics Limited, priority 2008, dated 2013).

Experiments:
Assay in all cases: Anti-proliferative assay (Oncodesign)
Type in all cases: cell-based
[1] = system: A-427; conditions: Homo sapiens; A-427 (LUNG); read-out: IC50 (Concentration of test compound)
How it was run: (§1)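 Proliferation measured by Alamar Blue fluorescence after 72 h compound incubation. IC50 in nM; highest concentration 10,000 nM.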

[2] = system: BB30-HNSCC; conditions: BB30-HNSCC (HEAD AND NECK); read-out: IC50 (Concentration of test compound)
How it was run: as §1

[3] = system: BB49-HNSCC; conditions: BB49-HNSCC (HEAD AND NECK); read-out: IC50 (Concentration of test compound)
How it was run: as §1

[4] = system: BV-173; conditions: Homo sapiens; BV-173 (BLOOD); read-out: IC50 (Concentration of test compound)
How it was run: as §1

[5] = system: CMEL-5; conditions: CMEL-5 (SKIN); read-out: IC50 (Concentration of test compound)
How it was run: as §1

[6] = system: Caki-1; conditions: Homo sapiens; Caki-1 (KIDNEY); read-out: IC50 (Concentration of test compound)
How it was run: as §1

[7] = system: Calu-1; conditions: Homo sapiens; Calu-1 (LUNG); read-out: IC50 (Concentration of test compound)
How it was run: as §1

[8] = system: FaDu; conditions: Homo sapiens; FaDu (HEAD AND NECK); read-out: IC50 (Concentration of test compound)
How it was run: as §1

[9] = system: K-562/Gleevec; conditions: Homo sapiens, K562; K-562/Gleevec (BLOOD); read-out: IC50 (Concentration of test compound)
How it was run: as §1

[10] = system: K-562; conditions: Homo sapiens, K562; K-562 (BLOOD); read-out: IC50 (Concentration of test compound)
How it was run: as §1

[11] = system: KCL-22; conditions: Homo sapiens; KCL-22 (BLOOD); read-out: IC50 (Concentration of test compound)
How it was run: as §1

[12] = system: KG-1; conditions: Homo sapiens; KG-1 (BLOOD); read-out: IC50 (Concentration of test compound)
How it was run: as §1

[13] = system: LB13-SCLC/OC3; conditions: LB13-SCLC/OC3 (LUNG); read-out: IC50 (Concentration of test compound)
How it was run: as §1

[14] = system: LB771-HNSCC; conditions: LB771-HNSCC (HEAD AND NECK); read-out: IC50 (Concentration of test compound)
How it was run: as §1

[15] = system: MC90; conditions: MC90 (BLOOD); read-out: IC50 (Concentration of test compound)
How it was run: as §1

[16] = system: NCI-H1299; conditions: Homo sapiens; NCI-H1299 (LUNG); read-out: IC50 (Concentration of test compound)
How it was run: as §1

[17] = system: NCI-H460; conditions: Homo sapiens; NCI-H460 (LUNG); read-out: IC50 (Concentration of test compound)
How it was run: as §1

[18] = system: NCI-H82; conditions: Homo sapiens; NCI-H82 (LUNG); read-out: IC50 (Concentration of test compound)
How it was run: as §1

[19] = system: Ramos; conditions: Homo sapiens; Ramos (BLOOD); read-out: IC50 (Concentration of test compound)
How it was run: as §1

[20] = system: SK-HEP-1; conditions: Homo sapiens, SK-HEP1; SK-HEP-1 (LIVER); read-out: IC50 (Concentration of test compound)
How it was run: as §1

[21] = system: SK-MEL-2; conditions: Homo sapiens; SK-MEL-2 (SKIN); read-out: IC50 (Concentration of test compound)
How it was run: as §1

[22] = system: SK-MEL-5; conditions: Homo sapiens; SK-MEL-5 (SKIN); read-out: IC50 (Concentration of test compound)
How it was run: as §1

[23] = system: SK-MES-1; conditions: Homo sapiens; SK-MES-1 (LUNG); read-out: IC50 (Concentration of test compound)
How it was run: as §1

[24] = system: SW-872; conditions: Homo sapiens, SW872; SW-872 (CONNECTIVE TISSUE); read-out: IC50 (Concentration of test compound)
How it was run: as §1

[25] = system: UZG4-MEL; conditions: UZG4-MEL (SKIN); read-out: IC50 (Concentration of test compound)
How it was run: as §1

Question: What does the source list for CC(C)c1cc(C(=O)N2Cc3ccc(CN4CCN(C)CC4)cc3C2)c(O)cc1O [(2,4-dihydroxy-5-isopropyl-phenyl)-[5-(4-methyl-piperazin-1-ylmethyl)-1,3-dihydro-isoindol-2-yl]-methanone]?
Answer: IC50 [1]: 0.13 µM; IC50 [2]: 0.273 µM; IC50 [3]: 0.146 µM; IC50 [4]: 0.073 µM; IC50 [5]: 0.13 µM; IC50 [6]: > 10 µM; IC50 [7]: 0.27 µM; IC50 [8]: 0.029 µM; IC50 [9]: 0.175 µM; IC50 [10]: 0.147 µM; IC50 [11]: 0.024 µM; IC50 [12]: > 10 µM; IC50 [13]: 0.021 µM; IC50 [14]: 0.391 µM; IC50 [15]: 0.093 µM; IC50 [16]: 0.587 µM; IC50 [17]: 0.118 µM; IC50 [18]: > 10 µM; IC50 [19]: 0.046 µM; IC50 [20]: > 10 µM; IC50 [21]: 0.138 µM; IC50 [22]: 0.185 µM; IC50 [23]: 0.27 µM; IC50 [24]: > 10 µM; IC50 [25]: 0.18 µM
